Test results from ChEMBL document CHEMBL5344434.

Experiments:
[1] = Selectivity index, ratio for cytotoxicity against human HepG2 cells after 48 hrs to antiviral activity against HEV Kernow-C1 infected in gaussia luciferase transfected HepG2 cells pre-infected with virus for 4 hrs followed by compound addition and measured after 48 hrs post infection; type: toxicity, cell-based; settings: read-out: Selectivity Index
[2] = Selectivity index, ratio for cytotoxicity against human HepG2 cells after 24 hrs to antiviral activity against HEV Kernow-C1 infected in gaussia luciferase transfected HepG2 cells pre-infected with virus for 4 hrs followed by compound addition and measured after 24 hrs post infection; type: toxicity, cell-based; settings: read-out: Selectivity Index
[3] = Selectivity index, ratio for cytotoxicity against african green monkey Vero E6 cells after 24 hrs to antiviral activity against SARS-CoV-2 2019-nCoV Muc-IMB-1 infected in Vero E6 cells pre-infected with virus for 1 hr followed by compound addition and measured after 24 hrs post infection; type: toxicity, cell-based, Vero C1008; settings: read-out: Selectivity Index
[4] = Selectivity index, ratio for cytotoxicity against human Huh-7 cells after 48 hrs to antiviral activity against Chikungunya virus ECSA infected in Huh-7 cells expressing GFP pre-infected with virus for 1 hr followed by compound addition and measured after 48 hrs post infection; type: toxicity, cell-based; settings: read-out: Selectivity Index
[5] = Selectivity index, ratio for cytotoxicity against african green monkey Vero E6 cells after 24 hrs to antiviral activity against RVFV MP-12 infected in Vero E6 cells pre-infected with virus for 1 hr followed by compound addition and measured after 24 hrs post infection; type: toxicity, cell-based, Vero C1008; settings: read-out: Selectivity Index
[6] = Selectivity index, ratio for cytotoxicity against african green monkey Vero E6 cells after 48 hrs to antiviral activity against RVFV MP-12 infected in Vero E6 cells pre-infected with virus for 1 hr followed by compound addition and measured after 48 hrs post infection; type: toxicity, cell-based, Vero C1008; settings: read-out: Selectivity Index
[7] = Selectivity index, ratio for cytotoxicity against african green monkey Vero E6 cells after 48 hrs to antiviral activity against SARS-CoV-2 2019-nCoV Muc-IMB-1 infected in Vero E6 cells pre-infected with virus for 1 hr followed by compound addition and measured after 48 hrs post infection; type: toxicity, cell-based, Vero C1008; settings: read-out: Selectivity Index
[8] = Selectivity index, ratio for cytotoxicity against human Huh-7 cells after 24 hrs to antiviral activity against Chikungunya virus ECSA infected in Huh-7 cells expressing GFP pre-infected with virus for 1 hr followed by compound addition and measured after 24 hrs post infection; type: toxicity, cell-based; settings: read-out: Selectivity Index
Vero C1008 = assay: Cytotoxicity against african green monkey Vero E6 cells after 48 hrs by MTT assay; type: toxicity, cell-based; settings: chlorocebus sabaeus, vero c1008, 48 h
[9] = Cytotoxicity against human HepG2 cells after 48 hrs by MTT assay; type: toxicity, cell-based
Hepatitis E virus [10] = assay: Antiviral activity against HEV Kernow-C1 infected in gaussia luciferase transfected HepG2 cells assessed as reduction in viral replication pre-infected with virus for 4 hrs followed by compound addition and measured after 48 hrs post infection by luminometer analysis; type: functional, organism-based; settings: for EC90: time 44 hrs
Hepatitis E virus [11] = assay: Antiviral activity against HEV Kernow-C1 infected in gaussia luciferase transfected HepG2 cells assessed as reduction in viral replication pre-infected with virus for 4 hrs followed by compound addition and measured after 24 hrs post infection by luminometer analysis; type: functional, organism-based; settings: for EC90: time 20 hrs
[12] = Cytotoxicity against human HepG2 cells after 24 hrs by MTT assay; type: toxicity, cell-based

In the case of `COC(=O)[C@H]1[C@@H](O)[C@@]2(O)c3c(OC)cc(F)cc3O[C@@]2(c2ccc(OC)cc2)[C@@H]1c1ccccc1` (racemic), the selectivity ratio at 48 h [1] is reported as 1.3 and the selectivity ratio at 24 h [2] is reported as 1.
For `COC(=O)[C@H]1[C@@H](O)[C@@]2(O)c3c(OC)cc(O[C@@H]4O[C@@H]([C@H](O)CO)CO[C@H]4OC)cc3O[C@@]2(c2ccc(OC)cc2)[C@@H]1c1ccccc1` [SILVESTROL], the selectivity ratio at 48 h [1] was 6.1 and the selectivity ratio at 24 h [2] was 76.7.
Compound `CONC(=O)[C@H]1[C@@H](O)[C@@]2(O)c3c(Cl)cc(Br)cc3O[C@@]2(c2ccc(OC)cc2)[C@@H]1c1ccccc1` (racemic) has a selectivity ratio at 48 h [1] of 5.7, a selectivity ratio at 24 h [3] of 19.5 and a selectivity ratio at 48 h [4] of 317. For the same compound, the selectivity ratio at 24 h [5] was 23.8, the selectivity ratio at 24 h [2] was 123 and the selectivity ratio at 48 h [6] was 1.7. The selectivity ratio at 48 h [7] was 0.9, the selectivity ratio at 24 h [8] was 402 and the CC50 (Vero C1008) was 176 nM.
`COC(=O)[C@H]1[C@@H](O)[C@@]2(O)c3c(OC)cc(OC)cc3O[C@@]2(c2ccc(F)cc2)[C@@H]1c1ccccc1` (racemic) showed a selectivity ratio at 48 h [1] of 1.4 and a selectivity ratio at 24 h [2] of 10.9.
Work on `COC(=O)[C@H]1[C@@H](O)[C@@]2(O)c3c(Cl)cc(Cl)cc3O[C@@]2(c2ccc(Br)cc2)[C@@H]1c1ccccc1` (racemic) yielded a selectivity ratio at 48 h [1] of 3.7 and a selectivity ratio at 24 h [2] of 13.4.
For `CONC(=O)[C@H]1[C@@H](O)[C@@]2(O)c3c(OC)cc(OC)cc3O[C@@]2(c2ccc(OC)cc2)[C@@H]1c1ccccc1` (racemic), the selectivity ratio at 48 h [1] was 3.8, the selectivity ratio at 24 h [2] was 35.4 and the CC50 at 48 h [9] was 14.3 nM. For the same compound, the EC50 (Hepatitis E virus [10]) was 3.7 nM, the EC90 (Hepatitis E virus [10]) was 27.3 nM and the EC50 (Hepatitis E virus [11]) was 6.1 nM. For the same compound, the EC90 (Hepatitis E virus [11]) was 29 nM and the CC50 at 24 h [12] was 188 nM.
Compound `COC(=O)[C@H]1[C@@H](O)[C@@]2(O)c3c(OC)cc(Br)cc3O[C@@]2(c2ccc(OC)cc2)[C@@H]1c1ccccc1` (racemic) has a selectivity ratio at 48 h [1] of 11, a selectivity ratio at 24 h [3] of 29.5 and a selectivity ratio at 48 h [4] of 428. The selectivity ratio at 24 h [5] was 38.4, the selectivity ratio at 24 h [2] was 160 and the selectivity ratio at 48 h [6] was 23.1. It also gave a selectivity ratio at 48 h [7] of 20.9 and a selectivity ratio at 24 h [8] of 637.
Compound `COC(=O)[C@H]1[C@@H](O)[C@@]2(O)c3c(Br)cc(Br)cc3O[C@@]2(c2ccc(OC)cc2)[C@@H]1c1ccccc1` (racemic) has a selectivity ratio at 48 h [1] of 2.6 and a selectivity ratio at 24 h [2] of 22.1.
For `COC(=O)[C@H]1[C@@H](O)[C@@]2(O)c3c(OC)cc(OC)cc3O[C@@]2(c2ccc(Cl)cc2)[C@@H]1c1ccccc1` (racemic), the selectivity ratio at 48 h [1] was 2.2 and the selectivity ratio at 24 h [2] was 26.4.
`COC(=O)[C@H]1[C@@H](O)[C@@]2(O)c3c(F)cc(F)cc3O[C@@]2(c2ccc(OC)cc2)[C@@H]1c1ccccc1` (racemic) gave a selectivity ratio at 48 h [1] of 1 and a selectivity ratio at 24 h [2] of 1.
For `COCOc1cc(F)c2c(c1)O[C@@]1(c3ccc(OC)cc3)[C@H](c3ccccc3)[C@@H](C(=O)OC)[C@@H](O)[C@@]21O` (racemic), the selectivity ratio at 48 h [1] was 1.8 and the selectivity ratio at 24 h [2] was 4.6.
`COc1cc(OC)c2c(c1)O[C@@]1(c3ccc(Cl)cc3)[C@H](c3ccccc3)[C@@H](C(=O)N(C)C)[C@@H](O)[C@@]21O` (racemic) gave a selectivity ratio at 48 h [1] of 2.7 and a selectivity ratio at 24 h [2] of 50.8.
With `COCOc1cc(F)c2c(c1)O[C@@]1(c3ccc(Br)cc3)[C@H](c3ccccc3)[C@@H](C(=O)OC)[C@@H](O)[C@@]21O` (racemic) the selectivity ratio at 48 h [1] was 2.1 and the selectivity ratio at 24 h [2] was 8.1.
Compound `COC(=O)[C@H]1[C@@H](O)[C@@]2(O)c3c(Cl)cc(OC)cc3O[C@@]2(c2ccc(OC)cc2)[C@@H]1c1ccccc1` (racemic) has a selectivity ratio at 48 h [1] of 1.8 and a selectivity ratio at 24 h [2] of 9.3.
For `COC(=O)[C@H]1[C@@H](O)[C@@]2(O)c3c(Br)cc(OC)cc3O[C@@]2(c2ccc(OC)cc2)[C@@H]1c1ccccc1` (racemic), the selectivity ratio at 48 h [1] was 2.5 and the selectivity ratio at 24 h [2] was 9.7.
`CONC(=O)[C@H]1[C@@H](O)[C@@]2(O)c3c(Cl)cc(Cl)cc3O[C@@]2(c2ccc(OC)cc2)[C@@H]1c1ccccc1` (racemic) gave a selectivity ratio at 48 h [1] of 3.3 and a selectivity ratio at 24 h [2] of 65.9.
For `CONC(=O)[C@H]1[C@@H](O)[C@@]2(O)c3c(OC)cc(OC)cc3O[C@@]2(c2ccc(Cl)cc2)[C@@H]1c1ccccc1` (racemic), the selectivity ratio at 48 h [1] was 4.2, the selectivity ratio at 24 h [2] was 198 and the CC50 at 48 h [9] was 10 nM. It also gave an EC50 (Hepatitis E virus [10]) of 2.3 nM, an EC90 (Hepatitis E virus [10]) of 18.2 nM and an EC50 (Hepatitis E virus [11]) of 2.8 nM. It also gave an EC90 (Hepatitis E virus [11]) of 23.8 nM and a CC50 at 24 h [12] of 529 nM.
Work on `COC(=O)[C@H]1[C@@H](O)[C@@]2(O)c3c(Cl)cc(Cl)cc3O[C@@]2(c2ccc(OC)cc2)[C@@H]1c1ccccc1` (racemic) yielded a selectivity ratio at 48 h [1] of 8.2, a selectivity ratio at 24 h [3] of 9 and a selectivity ratio at 48 h [4] of 44.9. It also gave a selectivity ratio at 24 h [5] of 9.8, a selectivity ratio at 24 h [2] of 31.7 and a selectivity ratio at 48 h [6] of 7. For the same compound, the selectivity ratio at 48 h [7] was 5.7 and the selectivity ratio at 24 h [8] was 57.5.
Compound `CONC(=O)[C@H]1[C@@H](O)[C@@]2(O)c3c(F)cc(OC)cc3O[C@@]2(c2ccc(OC)cc2)[C@@H]1c1ccccc1` (racemic) has a selectivity ratio at 48 h [1] of 2.5 and a selectivity ratio at 24 h [2] of 28.5.
For `CONC(=O)[C@H]1[C@@H](O)[C@@]2(O)c3c(OC)cc(OC)cc3O[C@@]2(c2ccc(F)cc2)[C@@H]1c1ccccc1` (racemic), the selectivity ratio at 48 h [1] was 3.7, the selectivity ratio at 24 h [2] was 13.5 and the CC50 at 48 h [9] was 143 nM. For the same compound, the EC50 (Hepatitis E virus [10]) was 52.9 nM, the EC90 (Hepatitis E virus [10]) was 338 nM and the EC50 (Hepatitis E virus [11]) was 53.7 nM. It also gave an EC90 (Hepatitis E virus [11]) of 670 nM and a CC50 at 24 h [12] of 666 nM.
For `COc1cc(OC)c2c(c1)O[C@@]1(c3ccc(F)cc3)[C@H](c3ccccc3)[C@@H](C(=O)N(C)C)[C@@H](O)[C@@]21O` (racemic), the selectivity ratio at 48 h [1] was 1.5 and the selectivity ratio at 24 h [2] was 4.4.
Work on `COC(=O)[C@H]1[C@@H](O)[C@@]2(O)c3c(OC)cc(Cl)cc3O[C@@]2(c2ccc(OC)cc2)[C@@H]1c1ccccc1` (racemic) yielded a selectivity ratio at 48 h [1] of 7.5 and a selectivity ratio at 24 h [2] of 79.3.
`COc1ccc([C@@]23Oc4cc(OC)cc(F)c4[C@]2(O)[C@H](O)[C@H](C(=O)N(C)C)[C@H]3c2ccccc2)cc1` (racemic) showed a selectivity ratio at 48 h [1] of 2.7 and a selectivity ratio at 24 h [2] of 14.3.
Compound `COC(=O)[C@H]1[C@@H](O)[C@@]2(O)c3c(OC)cc(OC)cc3O[C@@]2(c2ccc(Br)cc2)[C@@H]1c1ccccc1` (racemic) has a selectivity ratio at 48 h [1] of 3.2 and a selectivity ratio at 24 h [2] of 74.1.
`COC(=O)[C@H]1[C@@H](O)[C@@]2(O)c3c(Cl)cc(Br)cc3O[C@@]2(c2ccc(OC)cc2)[C@@H]1c1ccccc1` (racemic) showed a selectivity ratio at 48 h [1] of 5.1 and a selectivity ratio at 24 h [2] of 122.
`COC(=O)[C@H]1[C@@H](O)[C@@]2(O)c3c(Br)cc(Cl)cc3O[C@@]2(c2ccc(OC)cc2)[C@@H]1c1ccccc1` (racemic) showed a selectivity ratio at 48 h [1] of 2.8 and a selectivity ratio at 24 h [2] of 19.
With `CONC(=O)[C@H]1[C@@H](O)[C@@]2(O)c3c(Br)cc(Cl)cc3O[C@@]2(c2ccc(OC)cc2)[C@@H]1c1ccccc1` (racemic) the selectivity ratio at 48 h [1] was 4.6, the selectivity ratio at 24 h [2] was 163 and the CC50 at 48 h [9] was 26.3 nM. It also gave an EC50 (Hepatitis E virus [10]) of 5.5 nM, an EC90 (Hepatitis E virus [10]) of 62.9 nM and an EC50 (Hepatitis E virus [11]) of 4.1 nM. The EC90 (Hepatitis E virus [11]) was 131 nM and the CC50 at 24 h [12] was 464 nM.
Work on `COC(=O)[C@H]1[C@@H](O)[C@@]2(O)c3c(F)cc(OC)cc3O[C@@]2(c2ccc(OC)cc2)[C@@H]1c1ccccc1` (racemic) yielded a selectivity ratio at 48 h [1] of 2.5 and a selectivity ratio at 24 h [2] of 30.4.
With `COc1ccc([C@@]23Oc4cc(OC)cc(OC)c4[C@]2(O)[C@H](O)[C@H](C(=O)N(C)C)[C@H]3c2ccccc2)cc1` (racemic) [ROCAGLAMIDE] the selectivity ratio at 48 h [1] was 2.1 and the selectivity ratio at 24 h [2] was 19.7.
With `CONC(=O)[C@H]1[C@@H](O)[C@@]2(O)c3c(OC)cc(Br)cc3O[C@@]2(c2ccc(OC)cc2)[C@@H]1c1ccccc1` (racemic) the selectivity ratio at 48 h [1] was 7.4 and the selectivity ratio at 24 h [2] was 52800.
